Data taken from patent US20250213700A1, “COMPOUNDS, COMPOSITIONS, AND METHODS FOR CELL-SPECIFIC PHARMACOLOGY” (Duke University, priority 2022, published 2025).

What was measured:
[1] = tested on: DAT-Cre mice with +HTP or ddHTP in VTA dopamine neurons; experiment: locomotor speed after infusion into the VTA of DAT-Cre mice; assay type: in vivo, mouse; details: for running / locomotor speed, +HTP mice: 10:1 mixture with Alexa647.1DART.2, 1.2 μL of 10 μM into the VTA; for running / locomotor speed, ddHTP mice: same dose
Text: (FIG. 4A) Validation of gabazine.1^DART.2 in cerebellar slice. Top: voltage-clamp schematic. Bottom: tonic GABAAR in granule cells expressing ^+HTP or ^ddHTP. […] Data are mean±SEM, cells normalized to baseline. (FIG. 4B) In vivo delivery of gabazine.1^DART.2 to cerebellar granule cells. Top right: schematic of experimental approach, GCaMP6f granule-cell activity obtained in the absence of sensory stimuli. Top left: example field of view, GCaMP6f signal averaged across trials. Bottom: example calcium traces (ΔF/F) in an awake ^+HTP mouse before (baseline) and after (1 μL of 1 μM gabazine.1^DART.2) infusion. (FIG. 4C) In vivo, 1 μL of 1 μM gabazine.1^DART.2 to ^+HTP mice. Color indicates ΔF/F, each row is one cell before (left) and after (right) gabazine.1^DART.2 infusion. […] (FIG. 4D) In vivo, 1 μL of 1 μM gabazine.1^DART.2 to ^ddHTP mice. Format as in panel C. […] (FIG. 4E) Validation of gabazine.7^DART.2 in VTA slice. Top: evoked-IPSC configuration. […] Data are mean±SEM, cells normalized to baseline. […] Data are mean±SEM, normalized to baseline speed of each animal.
Behavioral assays: Assays were performed at least 3 weeks after viral injection to allow for recombinant protein expression. Mice were acclimated to head-fixation for 3 consecutive days prior to behavioral experiments. Reagents were infused into the brain via the cranial cannula. Immediately following infusion, mice were placed into open-field chambers (27 cm×27 cm) in the dark, and behavior was recorded using infrared video.
A practical issue for intrinsically active neurons is that one can no longer leverage the concept of a floor-effect (i.e., silencing an already quiet neuron), making it difficult to apply optogenetic principles of necessity and sufficiency. Thus, it was sought to examine the technical feasibility of using DART to block neurotransmitter signaling onto these cells; in essence, preventing extrinsic neurotransmitter modulation of dopamine neurons, without disrupting their intrinsic rhythm. Moreover, it was sought to use behavior as the readout, which would likely require manipulation of more cells over a larger brain volume than in the prior experiment. Given this goal, a wide dosing window is key, and thus effort was focused on gabazine.7DART.2, with expression of AAV DIO +HTPGPI or AAV DIO ddHTPGPI in DAT-Cre mice. […] Next, locomotor effects of the manipulations were assessed using the same viral parameters along with bilateral indwelling cannula.

[2] = tested on: NMDA or AMPA-mediated transmission; experiment: VTA slice, NMDA or AMPA-mediated transmission; assay type: cell-based, mouse
Description: Electrophysiology. Preparation of Brain slices: Mice (8-10 weeks) were injected AAV10 HaloTag™-dTomato to striatum or ventral tegmental area (VTA). After 3-5 weeks, mice were deeply anesthetized with isoflurane and euthanized by decapitation. Coronal brain slices ([…]) containing striatum or VTA were prepared by standard methods using a Vibratome (Leica, VT 1200S), in ice-cold high sucrose cutting solution containing (in mM) 220 sucrose, 3 KCl, 1.25 NaH2PO4, 25 NaHCO3, 12 MgSO4.7H2O, 10 glucose, and 0.2 CaCl2) bubbled with 95% O2 and 5% CO2. […]
Whole-cell patch-clamp recording: The brain slices or retinas were perfused with bubbled aCSF at 29-30° C. with a 2 ml/min flow rate. […] Series resistance was monitored using 5-10 mV hyperpolarizing step throughout the experiment, and cells were discarded if series resistance changed more than ˜15% during the experiment. […] Statistical significance was determined using Student's t or one-way or two-way ANOVA tests. eIPSCs or eEPSCs decay time constants were obtained by fitting a single-exponential function, I(t)=I exp(−t/T)+ISS, where I(t) is the amplitude of the current at time t and ISS is the steady-state current, I is instantaneous current subtracted from Iss, and t is the time constant of decay. […]

In the case of `COc1cc(CCCCl)ccc1CCOCCNC(=O)c1ccc(CNC(=O)CCOCCOCCOCCOCCOCCOCCOCCOCCOCCOCCOCCOCCOCCOCCOCCOCCOCCOCCOCCOCCOCCOCCOCCOCCOCCOCCOCCOCCOCCOCCOCCOCCOCCOCCOCCOCCn2cc(COCCOCCOCCOCCOCCOCCNC(=O)CCCn3c(=O)c(=O)[nH]c4cc([N+](=O)[O-])c(-n5ccnc5)cc43)nn2)cc1` [YM90K.1DART.2], the impact on locomotion ([1]; VTA dopamine neurons) is reported as “no impact on locomotion” and the “antagonism of the AMPAR in slice” value [2] is reported as “potent antagonism of the AMPAR”.
With `COc1cc(CCCCl)ccc1CCOCCNC(=O)c1ccc(CNC(=O)CCOCCOCCOCCOCCOCCOCCOCCOCCOCCOCCOCCOCCOCCOCCOCCOCCOCCOCCOCCOCCOCCOCCOCCOCCOCCOCCOCCOCCOCCOCCOCCOCCOCCOCCOCCOCCn2cc(COCCOCCOCCOCCOCCOCCOCCCCCCOc3ccc(-c4nn(CCCCC(=O)O)c(=N)cc4C)cc3)nn2)cc1` [gabazine.7DART.2] the “running / locomotor speed, +HTP mice” value [1] was “significant increase in running speed”, the “running / locomotor speed, +HTP mice” value ([1]; listed as gabazine.7^DART.2) was “increased locomotor speed” and the “running / locomotor speed, ddHTP mice” value [1] was “no impact in ^ddHTP animals”. The “running / locomotor speed, ddHTP mice” value ([1]; listed as gabazine.7^DART.2) was “not in ^ddHTP control mice” and the “impact on NMDA or AMPA-mediated transmission” value ([2]; +HTP cells) was “no impact on NMDA or AMPA-mediated transmission”.
